The source of these data is ChEMBL document CHEMBL3351806, “Development of a novel, multifunctional, membrane-interactive pyridinium salt with potent anticancer activity” (Bioorg Med Chem Lett, 2014).

Assay [1] in a line: Induction of membrane disruption using DMPG lipid vesicles at 187.5 uM. The format is functional.
Assay [2] in a line: Induction of membrane disruption using DMPE lipid vesicles at 187.5 uM. The format is functional.
The nature of assay [3]: Induction of membrane disruption using DMPS lipid vesicles at 187.5 uM. The format is functional.
The nature of assay [4]: Induction of membrane disruption using DMPC lipid vesicles at 187.5 uM. It counts as functional.
The nature of assay [5]: Antiproliferative activity against human IN1528 cells after 72 hrs by SRB method. The format is functional, cell-based. The following applies: IN1528, 72 h. (The SRB assay estimates cell density from bound dye.)
The nature of assay [6]: Antiproliferative activity against human IN1760 cells after 72 hrs by SRB method. The format is functional, cell-based. The following applies: IN1760, 72 h.
Assay [7] is described as follows: Antiproliferative activity against human IN1472 cells after 72 hrs by SRB method. The format is functional, cell-based. The note with it: IN1472, 72 h.
The nature of assay [8]: Antiproliferative activity against human U251MG cells after 72 hrs by SRB method. The note with it: U-251, 72 h. It counts as functional, cell-based.
Assay [9] relates to IN1528. The assay can be described thus: Induction of membrane disruption in human IN1528 cells assessed as dye uptake at 200 to 500 uM by trypan blue exclusion assay. It counts as functional, cell-based.
Assay [10] deals with IN1760. The assay is described as follows: Induction of membrane disruption in human IN1760 cells assessed as dye uptake at 200 to 500 uM by trypan blue exclusion assay. It counts as functional, cell-based.
Assay [11] has as its system IN1472. The assay can be described thus: Induction of membrane disruption in human IN1472 cells assessed as dye uptake at 200 to 500 uM by trypan blue exclusion assay. It counts as functional, cell-based.
Assay [12] concerns U-251. The assay is described as follows: Induction of membrane disruption in human U251MG cells assessed as dye uptake at 200 to 500 uM by trypan blue exclusion assay. It counts as functional, cell-based.
The subject of assay [13] is IN1528. The assay is described as follows: Induction of membrane disruption in human IN1528 cells assessed as cell structure disruption at 1000 uM by trypan blue exclusion assay. The format is functional, cell-based.
The test system of assay [14] is IN1760. The assay is described as follows: Induction of membrane disruption in human IN1760 cells assessed as cell structure disruption at 1000 uM by trypan blue exclusion assay. It counts as functional, cell-based.
Assay [15] deals with IN1472. The assay can be described thus: Induction of membrane disruption in human IN1472 cells assessed as cell structure disruption at 1000 uM by trypan blue exclusion assay. It counts as functional, cell-based.
Assay [16] deals with U-251. The assay can be described thus: Induction of membrane disruption in human U251MG cells assessed as cell structure disruption at 1000 uM by trypan blue exclusion assay. It counts as functional, cell-based.

The structures appear in SMILES notation. The source made the active and inactive calls. The rule behind the calls is not given here.

Consider `CN(C(=O)c1ccncc1)c1ccncc1`, for which the Activity in assay [1] was 30%; in assay [2], 34.9%; in [3], 23.3%; in [4], 34.1%.
On to `CCCCCCCCc1ccc(C(=O)N(C)c2ccc(CCCCCCCC)cc2)cc1`, for which the Activity is 16.6% in [1], 34.7% in assay [2], 27.2% in assay [3] and 27.3% in assay [4].
One may read the EC50 as the concentration giving half of the maximal effect. A low value points to a more potent agent. For `CCCCCCCC[n+]1ccc(C(=O)N(C)c2cc[n+](CCCCCCCC)cc2)cc1`, the EC50 in assay [5] is 9.8 µM; in assay [6], 19.5 µM; in assay [7], 78 µM; in [8], 312 µM. Also, the outcome in assay [9], in assay [10], in [11], in assay [12], in assay [13] and in [14] was Active. Also, the result in [15] and in assay [16] was Active. Besides, the Activity was found to be 44.2% in assay [1], 77.7% in assay [2], 64.6% in assay [3] and 38.8% in assay [4].
